How the values were obtained:
Type in all cases: cell-based
F508del CFTR = F508del CFTR (Homo sapiens, UniProt P13569, DEL508-508); assay: YFP halide assay, CFBe41o- cells, low temperature rescued F508del CFTR; settings: 27°C 24 h, 10 μM forskolin, read-out: EC50, potentiation of low temperature rescued F508del CFTR
Procedure: CFBe41o- cells were plated in black 384-well microplates at a density of 1,500 cells per well. After 24 h, cells were transduced with adenoviruses containing F508del CFTR and YFP (H148Q/I152L/) F47L using a multiplicity of infection of 30 infectious units per cell for each adenovirus. The next day, for the low temperature corrected assay, cells were incubated at 27°C for 24 h, for the chemically corrected assay cells were treated with corrector for 24 h at 37°C. On the day of analysis, cells were washed five times with Dulbecco’s Phosphate-Buffered Saline (DPBS) containing Ca^2+ and Mg^2+ (Life Technologies) using a Microplate Washer (BioTek). Then, cells were treated with 10 μM forskolin and the desired concentration of potentiator in a volume of 30 μl and the plates were incubated at room temperature for 10 min, a timepoint optimized in previous experiments showing good window (positive control/negative control > 2) and signal to background ratio. The YFP fluorescence was recorded for 2 min, starting immediately before addition of 30 μl NaI buffer (375 mM NaI, 7.5 mM KI, 1.76 mM KH2PO4, 10.1 mM Na2HPO4, 13.75 mM glucose) to the wells, using a FDSS/μCell (Hamamatsu) fluorescence reader with a 480 nm excitation filter and a 540 nm emission filter. The capacity of potentiators to increase CFTR channel function was expressed as 1-[fluorescence 36 s after NaI addition (F)/fluorescence before NaI addition (F0)], a timepoint optimized previously, resulting in an optimal signal window. Data was normalized using the formula: normalized response = 100^∗ (absolute response – negative control response)/(VX770 response – negative response) as such, VX770 response corresponds to 100. For Dose-response experiments, data was fitted using a 4 parameter hill function of the form Response = Bottom + (Top-Bottom)/(1 + 10ˆ((LogEC50-concentration)^∗HillSlope)) to determine EC50 values.

R117H CFTR = biological target: T1, R117H CFTR (Homo sapiens, UniProt P13569, R117H); assay: YFP halide assay, HEK293 cells expressing R117H CFTR; settings: 10 μM forskolin, VX770 = 100
T1 construct: expressed in transfected cells; host or cells: HEK293, transient (jetPEI)
T1 sequence (P13569 whole entry R117H): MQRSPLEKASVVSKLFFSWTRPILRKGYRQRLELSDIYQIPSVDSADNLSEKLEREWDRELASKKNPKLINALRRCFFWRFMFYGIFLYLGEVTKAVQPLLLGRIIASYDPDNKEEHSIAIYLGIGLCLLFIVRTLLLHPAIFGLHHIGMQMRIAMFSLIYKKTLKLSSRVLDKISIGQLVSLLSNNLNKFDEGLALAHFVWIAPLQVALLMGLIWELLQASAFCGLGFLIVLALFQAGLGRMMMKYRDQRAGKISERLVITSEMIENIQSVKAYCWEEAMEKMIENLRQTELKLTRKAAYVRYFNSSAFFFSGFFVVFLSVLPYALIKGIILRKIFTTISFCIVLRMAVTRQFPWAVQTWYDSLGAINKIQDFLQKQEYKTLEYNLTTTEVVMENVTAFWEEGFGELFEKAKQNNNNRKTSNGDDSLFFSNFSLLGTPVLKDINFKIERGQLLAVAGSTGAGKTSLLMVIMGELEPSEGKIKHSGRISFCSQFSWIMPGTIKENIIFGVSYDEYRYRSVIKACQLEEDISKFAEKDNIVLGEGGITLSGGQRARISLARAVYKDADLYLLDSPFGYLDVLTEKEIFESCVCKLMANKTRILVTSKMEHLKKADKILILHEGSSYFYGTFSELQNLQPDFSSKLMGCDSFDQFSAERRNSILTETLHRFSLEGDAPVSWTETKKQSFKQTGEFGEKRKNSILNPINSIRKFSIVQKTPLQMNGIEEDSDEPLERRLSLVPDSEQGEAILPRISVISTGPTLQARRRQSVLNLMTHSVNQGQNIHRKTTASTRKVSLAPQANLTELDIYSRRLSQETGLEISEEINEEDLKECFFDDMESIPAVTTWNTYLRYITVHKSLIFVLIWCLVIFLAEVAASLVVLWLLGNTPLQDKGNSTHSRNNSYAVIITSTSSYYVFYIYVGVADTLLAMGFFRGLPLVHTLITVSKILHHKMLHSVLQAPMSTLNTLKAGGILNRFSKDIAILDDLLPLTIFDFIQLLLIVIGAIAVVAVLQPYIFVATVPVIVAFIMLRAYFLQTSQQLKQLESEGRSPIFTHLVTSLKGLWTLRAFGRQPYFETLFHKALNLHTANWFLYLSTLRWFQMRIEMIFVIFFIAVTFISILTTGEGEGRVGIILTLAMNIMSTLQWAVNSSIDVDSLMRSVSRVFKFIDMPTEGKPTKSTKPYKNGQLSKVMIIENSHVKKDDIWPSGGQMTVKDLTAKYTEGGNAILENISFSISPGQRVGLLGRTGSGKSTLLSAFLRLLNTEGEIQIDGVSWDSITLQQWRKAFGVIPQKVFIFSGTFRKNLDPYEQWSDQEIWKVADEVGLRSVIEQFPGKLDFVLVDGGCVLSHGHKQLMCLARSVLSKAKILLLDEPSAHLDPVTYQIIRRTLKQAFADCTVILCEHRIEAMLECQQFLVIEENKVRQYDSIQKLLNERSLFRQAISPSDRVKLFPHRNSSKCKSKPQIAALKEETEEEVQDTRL
Procedure: (§1) HEK293 cells were transfected with 10–80 ng of plasmid encoding G551D, G178R, G1349D, S549N, R117H, R334W, or wild type CFTR and 20 ng of plasmid encoding YFP (H148Q/I152L/F47L) using jetPEI (Polyplus transfection). Directly after transfection, cells were seeded in black 96-well plates coated with Poly-D-lysine at a density of 70,000 cells per well. The next day, cells were incubated at 27°C for 24 h, for low temperature correction. When evaluating in a chronic setting, the potentiator concentration range was also added to the cells for 24 h. After this incubation period, cells were washed twice with DPBS with Ca^2+ and Mg^2+. Subsequently, cells were treated with 10 μM forskolin and the desired concentration of potentiator in a volume of 40 μl and incubated at room temperature for 10 min, a timepoint optimized in previous experiments resulting in a good window (positive control/negative control > 2) and signal to background ratio. YFP fluorescence was measured using an EnVision plate reader (PerkinElmer). […] The excitation wavelength was 485 nm and the emission wavelength 530 nm. The capacity of potentiators to increase CFTR channel function was expressed as 1-[fluorescence 7 s after NaI addition (F)/fluorescence before NaI addition (F0)]. […]

G551D CFTR = biological target: T2, G551D CFTR (Homo sapiens, UniProt P13569, G551D); assay: YFP halide assay, HEK293 cells expressing G551D CFTR; settings: for Efficacy on G551D CFTR relative to VX770: 10 μM forskolin, VX770 = 100; for Additive effect of GLPG1837 and GLPG2451 combined on G551D CFTR: 90 μM each, 1 μM forskolin; for Additive effect to VX770 on G551D CFTR: 90 μM potentiator plus 10 μM VX770, 1 μM forskolin
T2 construct: expressed in transfected cells; host or cells: HEK293, transient (jetPEI)
T2 sequence (P13569 whole entry G551D): as the sequence (P13569 whole entry R117H) above, with H117R, G551D counted along it
Procedure: HEK293 cells were transfected with 10–80 ng of plasmid encoding G551D, G178R, G1349D, S549N, R117H, R334W, or wild type CFTR and 20 ng of plasmid encoding YFP (H148Q/I152L/F47L) using jetPEI (Polyplus transfection). Directly after transfection, cells were seeded in black 96-well plates coated with Poly-D-lysine at a density of 70,000 cells per well. The next day, cells were incubated at 27°C for 24 h, for low temperature correction. When evaluating in a chronic setting, the potentiator concentration range was also added to the cells for 24 h. After this incubation period, cells were washed twice with DPBS with Ca^2+ and Mg^2+. Subsequently, […] of potentiator in a volume of 40 μl and incubated at room temperature for 10 min, a timepoint optimized in previous experiments resulting in a good window (positive control/negative control > 2) and signal to background ratio. YFP fluorescence was measured using an EnVision plate reader (PerkinElmer). […] The excitation wavelength was 485 nm and the emission wavelength 530 nm. The capacity of potentiators to increase CFTR channel function was expressed as 1-[fluorescence 7 s after NaI addition (F)/fluorescence before NaI addition (F0)]. Data was normalized using the formula: normalized response = 100^∗ (absolute response – negative control response)/(VX770 response – negative response) as such, VX770 response corresponds to 100. For Dose-response experiments, data was fitted using a 4 parameter hill function of the form Response = Bottom + (Top-Bottom)/(1 + 10ˆ((LogEC50-concentration)^∗HillSlope)) to determine EC50 values.

G178R CFTR = biological target: T3, G178R CFTR (Homo sapiens, UniProt P13569, G178R); assay: YFP halide assay, HEK293 cells expressing G178R CFTR; settings: 10 μM forskolin, VX770 = 100
T3 construct: expressed in transfected cells; host or cells: HEK293, transient (jetPEI)
T3 sequence (P13569 whole entry G178R): as the sequence (P13569 whole entry R117H) above, with H117R, G178R counted along it
Procedure: as §1

Sequence of F508del CFTR (P13569 with tags, fused parts or gaps DEL508-508): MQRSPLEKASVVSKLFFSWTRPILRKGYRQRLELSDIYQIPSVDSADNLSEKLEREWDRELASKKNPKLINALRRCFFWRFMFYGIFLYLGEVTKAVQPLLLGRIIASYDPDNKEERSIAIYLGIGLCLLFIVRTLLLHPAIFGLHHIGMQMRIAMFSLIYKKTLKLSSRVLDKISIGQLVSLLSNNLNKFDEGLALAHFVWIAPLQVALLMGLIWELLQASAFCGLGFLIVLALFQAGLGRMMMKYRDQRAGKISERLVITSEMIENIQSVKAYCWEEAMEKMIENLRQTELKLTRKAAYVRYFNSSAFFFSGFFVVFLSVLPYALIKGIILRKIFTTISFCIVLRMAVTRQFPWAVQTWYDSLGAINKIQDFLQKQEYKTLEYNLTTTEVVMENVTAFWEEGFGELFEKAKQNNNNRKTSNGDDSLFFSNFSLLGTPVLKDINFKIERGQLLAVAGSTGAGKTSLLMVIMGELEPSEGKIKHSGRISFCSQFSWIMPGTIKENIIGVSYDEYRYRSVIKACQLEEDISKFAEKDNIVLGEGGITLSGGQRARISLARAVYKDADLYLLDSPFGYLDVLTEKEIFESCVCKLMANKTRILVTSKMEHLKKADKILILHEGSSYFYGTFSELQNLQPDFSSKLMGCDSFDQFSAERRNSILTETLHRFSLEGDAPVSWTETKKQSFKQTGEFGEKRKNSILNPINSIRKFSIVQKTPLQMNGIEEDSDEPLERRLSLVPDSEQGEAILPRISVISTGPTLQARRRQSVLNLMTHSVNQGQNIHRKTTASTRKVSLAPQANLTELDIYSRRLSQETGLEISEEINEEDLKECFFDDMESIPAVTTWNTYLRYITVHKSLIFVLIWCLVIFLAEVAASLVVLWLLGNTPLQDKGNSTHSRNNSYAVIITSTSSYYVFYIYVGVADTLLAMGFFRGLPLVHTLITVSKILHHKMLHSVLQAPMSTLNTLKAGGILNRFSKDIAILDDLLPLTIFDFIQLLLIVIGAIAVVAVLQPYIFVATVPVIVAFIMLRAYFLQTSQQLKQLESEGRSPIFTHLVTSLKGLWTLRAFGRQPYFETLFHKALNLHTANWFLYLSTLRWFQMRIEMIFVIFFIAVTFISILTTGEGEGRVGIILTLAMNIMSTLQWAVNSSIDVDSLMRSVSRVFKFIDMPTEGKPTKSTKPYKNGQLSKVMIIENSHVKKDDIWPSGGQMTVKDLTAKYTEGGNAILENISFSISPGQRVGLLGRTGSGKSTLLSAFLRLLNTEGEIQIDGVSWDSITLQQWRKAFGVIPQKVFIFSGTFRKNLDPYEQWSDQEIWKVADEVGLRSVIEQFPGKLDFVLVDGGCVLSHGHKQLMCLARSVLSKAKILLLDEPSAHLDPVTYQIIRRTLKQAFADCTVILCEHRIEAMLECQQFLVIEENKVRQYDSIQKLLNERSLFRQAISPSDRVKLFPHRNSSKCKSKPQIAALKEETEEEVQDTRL

For `CC1(C)Cc2c(sc(NC(=O)c3ccn[nH]3)c2C(N)=O)C(C)(C)O1` [GLPG1837, N-(3-Carbamoyl-5,5,7,7-tetramethyl-5,7-dihydro-4H-thieno[2,3-c]pyran-2-yl)-lH-pyrazole-5-carboxamide], the EC50 (F508del CFTR) was 3.5 ± 0.2 nM, the “Efficacy on R117H CFTR relative to VX770” value (R117H CFTR) was 120% and the “Efficacy on G551D CFTR relative to VX770” value (G551D CFTR) was 260%. The “Additive effect of GLPG1837 and GLPG2451 combined on G551D CFTR” value (G551D CFTR) was “failed to show any additive effect”, the “Additive effect to VX770 on G551D CFTR” value (G551D CFTR) was “didn’t show any additive effect” and the “Efficacy on G178R CFTR relative to VX770” value (G178R CFTR) was 154%.
With `C[C@H](O)CNC(=O)c1ncc(S(=O)(=O)c2ccc(OC(F)(F)F)cc2)cc1N` [GLPG2451] the EC50 (F508del CFTR) was 11.1 ± 3.6 nM, the “Efficacy on R117H CFTR relative to VX770” value (R117H CFTR) was 105% and the “Efficacy on G551D CFTR relative to VX770” value (G551D CFTR) was 171%. For the same molecule, the “Additive effect of GLPG1837 and GLPG2451 combined on G551D CFTR” value (G551D CFTR) was “failed to show any additive effect”, the “Additive effect to VX770 on G551D CFTR” value (G551D CFTR) was “didn’t show any additive effect” and the “Efficacy on G178R CFTR relative to VX770” value (G178R CFTR) was 106%.

— paper PMC6212544, “Identification and Characterization of Novel CFTR Potentiators” (Frontiers in Pharmacology, 2018)
